According to patent US20230085307A1, “PYRIDAZINONE COMPOUND AND HERBICIDE” (NISSAN CHEMICAL CORPORATION, priority 2019, published 2023):

Experiments:
barnyard grass [1] = assay: Test Example 3: herbicidal effect by foliage application, Wagner pot (Table 18, symbol H); assay type: in vivo, barnyard grass (Echinochloa crus-galli); details: for herbicidal effect on H: barnyard grass: amount of applied herbicide 320 g/ha; for herbicidal effect on barnyard grass (H): 320 g/ha
Procedure, shortened: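 Plants were sown in alluvial soil held under 0.1–0.5 cm standing water and grown 14 days in a greenhouse at 25–30 °C. An emulsifiable formulation, water-diluted to the set dose, was then sprayed onto the foliage, and effects were scored three weeks later using previously defined criteria.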

late watergrass [2] = assay: Test Example 2: herbicidal activity, application during weed generation under submerged conditions (Table 17, symbol A); assay type: in vivo, late watergrass (Echinochloa oryzicola); details: AAH 320 g/ha; application during weed generation, submerged conditions
Procedure, shortened: (§1)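 Effect on each weed is rated three weeks post-treatment, using the same scoring criteria as the preceding test. Plants grow from mixed-sown seed in flooded alluvial soil (4 cm water) at 25° C. to 30° C., and are treated at one to two leaves with diluted emulsion dropped onto the water.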

redroot pigweed = assay: Test Example 5: herbicidal effect by foliage application, plastic box (Table 20, symbol N); assay type: in vivo, redroot pigweed (Amaranthus retroflexus); details: foliage application; for N: redroot pigweed, herbicidal effect grade: 320 g/ha, three weeks after application
Procedure, shortened: (§2)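 Plants were sown into sterilized diluvial soil under about 1.5 cm cover and kept in a greenhouse at 25° C. to 30° C. Fourteen days on, foliage received an even spray of the diluted emulsion. Herbicidal or crop effect was judged three weeks afterwards.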

Japanese bulrush = assay: Test Example 1: herbicidal activity, application before weed generation under submerged conditions (Table 16, symbol B); assay type: in vivo, Japanese bulrush (Schoenoplectus juncoides); details: amount of applied herbicide 320 g/ha
Procedure, shortened: (§3)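 Submerged Wagner pots (alluvial soil, 4 cm water) sown with weed seeds and planted with 2.5-leaf rice seedlings; emulsifiable concentrate diluted in water applied to water surface on sowing day. Held in greenhouse at 25-30 °C; injury scored 0-5 by herbicidal rate after three weeks.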

green foxtail = assay: Test Example 5: herbicidal effect by foliage application, plastic box (Table 20, symbol G); assay type: in vivo, green foxtail (Setaria viridis); details: foliage application; for G: green foxtail, herbicidal effect grade: 320 g/ha, three weeks after application
Procedure, shortened: as §2

velvetleaf = assay: Test Example 4: herbicidal effect by soil treatment (Table 19, symbol M); assay type: in vivo, velvetleaf (Abutilon theophrasti); details: amount of applied herbicide 320 g/ha
Procedure, shortened: (§4)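 In this soil treatment, the formulated compound reached the seeds only through the soil: seeds were buried about 1.5 cm deep in sterilized diluvial soil, then the diluted emulsion was sprayed over the surface. After three weeks at 25° C. to 30° C. in a greenhouse, effects were graded on criteria from an earlier test.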

late watergrass [3] = assay: Test Example 1: herbicidal activity, application before weed generation under submerged conditions (Table 16, symbol A); assay type: in vivo, late watergrass (Echinochloa oryzicola); details: amount of applied herbicide 320 g/ha
Procedure, shortened: as §3

Italian ryegrass = assay: Test Example 4: herbicidal effect by soil treatment (Table 19, symbol K); assay type: in vivo, Italian ryegrass (Lolium multiflorum); details: amount of applied herbicide 320 g/ha
Procedure, shortened: as §4

windgrass [4] = assay: Test Example 5: herbicidal effect by foliage application, plastic box (Table 20, symbol L); assay type: in vivo, windgrass (Apera spica-venti); details: foliage application; for L: windgrass, herbicidal effect grade: 320 g/ha, three weeks after application
Procedure, shortened: as §2

lambsquarters = assay: Test Example 4: herbicidal effect by soil treatment (Table 19, symbol O); assay type: in vivo, lambsquarters (Chenopodium album); details: amount of applied herbicide 320 g/ha
Procedure, shortened: as §4

chickweed [5] = assay: Test Example 5: herbicidal effect by foliage application, plastic box (Table 20, symbol P); assay type: in vivo, common chickweed (Stellaria media); details: foliage application; for P: chickweed, herbicidal effect grade: 320 g/ha, three weeks after application
Procedure, shortened: as §2

windgrass [6] = assay: Test Example 4: herbicidal effect by soil treatment (Table 19, symbol L); assay type: in vivo, windgrass (Apera spica-venti); details: amount of applied herbicide 320 g/ha
Procedure, shortened: as §4

chickweed [7] = assay: Test Example 4: herbicidal effect by soil treatment (Table 19, symbol P); assay type: in vivo, common chickweed (Stellaria media); details: amount of applied herbicide 320 g/ha
Procedure, shortened: as §4

barnyard grass [8] = assay: Test Example 4: herbicidal effect by soil treatment (Table 19, symbol H); assay type: in vivo, barnyard grass (Echinochloa crus-galli); details: amount of applied herbicide 320 g/ha
Procedure, shortened: as §4

persian speedwell [9] = assay: Test Example 5: herbicidal effect by foliage application, plastic box (Table 20, symbol R); assay type: in vivo, Persian speedwell (Veronica persica); details: foliage application; for R: persian speedwell, herbicidal effect grade: 320 g/ha, three weeks after application
Procedure, shortened: as §2

oval-leafed pondweed = assay: Test Example 2: herbicidal activity, application during weed generation under submerged conditions (Table 17, symbol C); assay type: in vivo, oval-leafed pondweed (Monochoria vaginalis); details: AAH 320 g/ha; application during weed generation, submerged conditions
Procedure, shortened: as §1

persian speedwell [10] = assay: Test Example 4: herbicidal effect by soil treatment (Table 19, symbol R); assay type: in vivo, Persian speedwell (Veronica persica); details: amount of applied herbicide 320 g/ha
Procedure, shortened: as §4

[11] = AAH 320 g/ha, evaluated three weeks after application

Row | Compound | herbicidal effect on H: barnyard grass (barnyard grass [1]) | herbicidal effect rating, A: late watergrass (late watergrass [2]) | N: redroot pigweed, herbicidal effect grade (redroot pigweed) | Herbicidal effect, B: Japanese bulrush (Japanese bulrush) | G: green foxtail, herbicidal effect grade (green foxtail) | herbicidal effect, M: velvetleaf (velvetleaf) | Herbicidal effect, A: late watergrass (late watergrass [3]) | herbicidal effect, K: Italian ryegrass (Italian ryegrass) | L: windgrass, herbicidal effect grade (windgrass [4]) | P: chickweed, herbicidal effect grade (chickweed [5]) | R: persian speedwell, herbicidal effect grade (persian speedwell [9]) | herbicidal effect rating, C: oval-leafed pondweed (oval-leafed pondweed) | herbicidal effect on barnyard grass (H) (barnyard grass [1]) | M: velvetleaf, herbicidal effect grade (velvetleaf) | K: Italian ryegrass, herbicidal effect grade (Italian ryegrass) | O: lambsquarters, herbicidal effect grade (lambsquarters) | L: windgrass, herbicidal effect grade (windgrass [6]) | P: chickweed, herbicidal effect grade (chickweed [7]) | H: barnyard grass, herbicidal effect grade (barnyard grass [8]) | R: persian speedwell, herbicidal effect grade (persian speedwell [10]) | also measured
1 | CCCC(=O)Oc1c(C)nn(C)c(=O)c1-c1c(-c2ccc(F)cc2OCC)sc2cc(F)ccc12 [3-012] | 5 (Herbicidal rate of 90% or more (almost completely withered)) | 4 (Herbicidal rate of 70% or more and less than 90%) | 5 (Herbicidal rate of 90% or more (almost completely withered)) | 5 (Herbicidal rate of 90% or more (almost completely withered)) | 4 (Herbicidal rate of 70% or more and less than 90%) | 0 (Herbicidal rate of 5% or less (almost no effect)) | 5 (Herbicidal rate of 90% or more (almost completely withered)) | 3 (Herbicidal rate of 40% or more and less than 70%) | 5 (Herbicidal rate of 90% or more (almost completely withered)) | 5 (Herbicidal rate of 90% or more (almost completely withered)) | 5 (Herbicidal rate of 90% or more (almost completely withered)) | 4 (Herbicidal rate of 70% or more and less than 90%) | – | – | – | – | – | – | – | – | herbicidal effect, O: lambsquarters (lambsquarters): 3 (Herbicidal rate of 40% or more and less than 70%); herbicidal effect, L: windgrass (windgrass [6]): 5 (Herbicidal rate of 90% or more (almost completely withered)); herbicidal effect, P: chickweed (chickweed [7]): 4 (Herbicidal rate of 70% or more and less than 90%); herbicidal effect, H: barnyard grass (barnyard grass [8]): 3 (Herbicidal rate of 40% or more and less than 70%); herbicidal effect, R: persian speedwell (persian speedwell [10]): 5 (Herbicidal rate of 90% or more (almost completely withered))
2 | CCOc1ccccc1-c1sc2cc(OC)ccc2c1-c1c(O)c(C)nn(CC)c1=O [3-085] | – | 0 (Herbicidal rate of 5% or less (almost no effect)) | 5 (Herbicidal rate of 90% or more (almost completely withered)) | 5 (Herbicidal rate of 90% or more (almost completely withered)) | 4 (Herbicidal rate of 70% or more and less than 90%) | – | 5 (Herbicidal rate of 90% or more (almost completely withered)) | – | 4 (Herbicidal rate of 70% or more and less than 90%) | 5 (Herbicidal rate of 90% or more (almost completely withered)) | 5 (Herbicidal rate of 90% or more (almost completely withered)) | 3 (Herbicidal rate of 40% or more and less than 70%) | 5 (Herbicidal rate of 90% or more (almost completely withered)) | 0 (Herbicidal rate of 5% or less (almost no effect)) | 0 (Herbicidal rate of 5% or less (almost no effect)) | 3 (Herbicidal rate of 40% or more and less than 70%) | 0 (Herbicidal rate of 5% or less (almost no effect)) | 3 (Herbicidal rate of 40% or more and less than 70%) | 3 (Herbicidal rate of 40% or more and less than 70%) | 5 (Herbicidal rate of 90% or more (almost completely withered)) | –
3 | Cc1nn(C)c(=O)c(-c2c(-c3ccc4c(c3)OC(F)(F)O4)sc3ccc(F)cc23)c1O [2-392] | 5 (Herbicidal rate of 90% or more (almost completely withered)) | 2 (Herbicidal rate of 20% or more and less than 40%) | – | 0 (Herbicidal rate of 5% or less (almost no effect)) | – | 1 (Herbicidal rate of 5% or more and less than 20%) | 3 (Herbicidal rate of 40% or more and less than 70%) | 3 (Herbicidal rate of 40% or more and less than 70%) | – | – | – | 0 (Herbicidal rate of 5% or less (almost no effect)) | – | – | – | – | – | – | – | – | N: redroot pigweed, herbicidal effect (criteria 0-5) (redroot pigweed; [11]): 4 (Herbicidal rate of 70% or more and less than 90%); G: green foxtail, herbicidal effect (criteria 0-5) (green foxtail; [11]): 3 (Herbicidal rate of 40% or more and less than 70%); L: windgrass, herbicidal effect (criteria 0-5) (windgrass [4]; [11]): 0 (Herbicidal rate of 5% or less (almost no effect)); herbicidal effect, O: lambsquarters (lambsquarters): 3 (Herbicidal rate of 40% or more and less than 70%); P: chickweed, herbicidal effect (criteria 0-5) (chickweed [5]; [11]): 5 (Herbicidal rate of 90% or more (almost completely withered)); herbicidal effect, L: windgrass (windgrass [6]): 1 (Herbicidal rate of 5% or more and less than 20%); herbicidal effect, P: chickweed (chickweed [7]): 5 (Herbicidal rate of 90% or more (almost completely withered)); herbicidal effect, H: barnyard grass (barnyard grass [8]): 2 (Herbicidal rate of 20% or more and less than 40%); R: persian speedwell, herbicidal effect (criteria 0-5) (persian speedwell [9]; [11]): 5 (Herbicidal rate of 90% or more (almost completely withered)); herbicidal effect, R: persian speedwell (persian speedwell [10]): 5 (Herbicidal rate of 90% or more (almost completely withered))
4 | COCCOc1ccc2c(-c3c(O)c(C)nn(C)c3=O)c(-c3ccccc3OC)sc2c1 [3-121] | – | 3 (Herbicidal rate of 40% or more and less than 70%) | 5 (Herbicidal rate of 90% or more (almost completely withered)) | 5 (Herbicidal rate of 90% or more (almost completely withered)) | 5 (Herbicidal rate of 90% or more (almost completely withered)) | – | 5 (Herbicidal rate of 90% or more (almost completely withered)) | – | 5 (Herbicidal rate of 90% or more (almost completely withered)) | 5 (Herbicidal rate of 90% or more (almost completely withered)) | 5 (Herbicidal rate of 90% or more (almost completely withered)) | 3 (Herbicidal rate of 40% or more and less than 70%) | 5 (Herbicidal rate of 90% or more (almost completely withered)) | 5 (Herbicidal rate of 90% or more (almost completely withered)) | 5 (Herbicidal rate of 90% or more (almost completely withered)) | 5 (Herbicidal rate of 90% or more (almost completely withered)) | 5 (Herbicidal rate of 90% or more (almost completely withered)) | 5 (Herbicidal rate of 90% or more (almost completely withered)) | 5 (Herbicidal rate of 90% or more (almost completely withered)) | 5 (Herbicidal rate of 90% or more (almost completely withered)) | –
5 | COc1ccccc1-c1sc2cc(OC(C)C)ccc2c1-c1c(O)c(C)nn(C)c1=O [3-101] | – | 3 (Herbicidal rate of 40% or more and less than 70%) | 5 (Herbicidal rate of 90% or more (almost completely withered)) | 5 (Herbicidal rate of 90% or more (almost completely withered)) | 5 (Herbicidal rate of 90% or more (almost completely withered)) | – | 5 (Herbicidal rate of 90% or more (almost completely withered)) | – | 5 (Herbicidal rate of 90% or more (almost completely withered)) | 5 (Herbicidal rate of 90% or more (almost completely withered)) | 5 (Herbicidal rate of 90% or more (almost completely withered)) | 2 (Herbicidal rate of 20% or more and less than 40%) | 5 (Herbicidal rate of 90% or more (almost completely withered)) | 3 (Herbicidal rate of 40% or more and less than 70%) | 5 (Herbicidal rate of 90% or more (almost completely withered)) | 5 (Herbicidal rate of 90% or more (almost completely withered)) | 4 (Herbicidal rate of 70% or more and less than 90%) | 4 (Herbicidal rate of 70% or more and less than 90%) | 5 (Herbicidal rate of 90% or more (almost completely withered)) | 4 (Herbicidal rate of 70% or more and less than 90%) | –
